Measured values published in patent US12378201B2, “Histone demethylase inhibitors for treating cancers” (The Board of Regents of the University of Texas System, priority 2019, dated 2025).

Assays:
LnCap cells = assay: Effect on LnCap cell viability; details: 1 μM
Method: (§1) The initial interest was to see the importance of length of side chain on B-3. […] Relative cell growth can be assessed using the MTT (3-(4,5-dimethylthiazol-2-yl)-2,5-diphenyltetrazolium bromide) assay, a colorimetric assay for assessing cell metabolic activity. Cells (1000 to 2000 cells/well) in 150 μL culture medium were seeded in wells of a 96-well plate one day before various concentrations of drugs were added. After continuing culture in the presence of the drugs for the indicated time (3-4 days), 20 μL of 5 mg/mL MTT solution (Sigma-Aldrich) was added into each well. After incubation at 37° C. for 30 min, the culture medium was removed and 100 μL of DMSO was added to dissolve MTT crystals. Plates were shaken for 15 min at room temperature and absorbance at OD590 was read by plate reader.

[1] = system: prostate and kidney cancer cells; assay: Cell growth inhibition / anti-proliferation (MTT); type: cell-based, human
Text: Results of MTT assays for compounds disclosed herein can be found in FIGS. 1, 2A-2C, 3, 4, 5, 6, 7, 8, 9, 10A-10C, and 11A-11C.

[2] = system: castration resistant prostate cancer cell line 22RV1; assay: 22RV1 xenograft tumor growth in NOD/SCID mice; type: in vivo; details: in words
Method: All animal work was approved by the Institutional Animal Care and Use Committee. NOD/SCID mice (6-8 weeks old) were subcutaneously injected in the flank region with castration resistant prostate cancer cell line 22RV1 (1×10^6 cells/site) mixed with 50% Matrigel (BD Biosciences). When tumor volumes reached 50-100 mm^3 in size, animals were randomly divided into 5 groups: control (DMSO); B3 (50 or 10 mg/kg in DMSO); SS-79N (20 or 10 mg/kg in DMSO). Each group included six mice. Tumor volume (cubic millimeters) was measured by caliper twice a week and calculated by using the ellipsoid formula (π/6×length×width×depth, see FIGS. 12A-12B).

[3] = system: LNCaP and 22rv1 cell lines; assay: SAR statements on LNCaP and 22rv1 cell lines; type: cell-based; details: LNCaP 1 μM, 22rv1 0.5 μM
Method: All compounds were evaluated for their effects on LNCaP and 22rv1 cell lines at 1 and 0.5 μM concentrations, respectively. […] For this purpose different analogues of B-3 with chain length varying from 0 to 4 carbon were synthesized (Table 1). […] In view of the availability of a variety of commercially available benzyl amines over phenyl propyl amines and method to functionalize analogues with 1C chain compound 14c was selected for further modification.

22rv1 = assay: Effect on 22rv1 cell viability; details: Homo sapiens
Method: as §1

KDM4 = details: previous report; cited from earlier work
[4] = system: cancer cell lines including PC3; details: previous report; includes PC3 cells lacking AR; cited from earlier work
[5] = system: KDM4B-regulated AR-V7 expression; details: previous report; cited from earlier work

SMILES | % Cell Viability of LnCap cells at 1 μM (LnCap cells) [%] | increase in potency compared to other 8-hydroxyquinoline-containing compounds, such as B3 ([1]; IC50 versus B3) | efficacy compared with the known GSK KDM6B inhibitor ([1]; in words) | IC50 ([1]; prostate and kidney cancer cells) [nM] | in vivo efficacy [2] | activity on cell lines, in words (SAR) [3] | viability at 0.5 µM (22rv1; 22Rv1, read-out: % Cell Viability of 22rv1 at 0.5 μM) [%] | viability at 1 µM (22rv1; 22Rv1, read-out: % Cell Viability of 22rv1 at 1 μM) [%] | KDM4 inhibition, in words (KDM4) | effectiveness against cancer cell lines, in words [4] | inhibition of KDM4B-regulated AR-V7 expression, in words [5]
O=C(NCc1ccc(C(=O)NC2CCC(C(F)(F)F)CC2)cc1)c1cccc(-c2cc(O)c3ncccc3c2)c1 (centres unmarked) [Compound 17l] | 24.2 | more than 20 fold | much better efficacy than the known GlaxoSmithKline (GSK) KDM6B inhibitor | < 200 | favorable in vivo efficacy | improved further | – | – | – | – | –
O=C(NCCCc1ccccc1)c1cccc(-c2cc(O)c3ncccc3c2)c1 [Compound B-3, reference compound] | – | – | – | – | – | – | 63.6 | 42.5 | highly selective and potent KDM4 inhibitor | highly effective against a variety of cancer cell lines including PC3 | able to inhibit KDM4B-regulated AR-V7 expression
